We go through 36 compounds from patent publication US20260265259A1, “SUBSTITUTED 6-IMIDAZOPYRIDAZINE IL-17A MODULATORS AND USES THEREOF” (DICE ALPHA, INC., priority 2023, published 2026).

Where two headings read alike, the source gives them in different places.

This experiment relates to IL-17A/A. Description: IL-17A/A HEK-Blue cell assay. In kind it is cell-based. Conditions: IL-17A/A inhibition, HEK-Blue IL-17A reporter cell line, IL17A/A 5 ng/mL. On the procedure:
The HEK-Blue IL-17A reporter cell line (Fisher #NC1408637) was used for cell-based IL-17A/A inhibition assays. Cells were grown and prepared for assays according to the manufacturer's instructions. This cell line consists of HEK 293 cells that were designed to expressed IL-17RA, IL-17RC, and the Act1 adapter molecule, the combination of which, when stimulated by IL-17A/A or IL17A/F activates a NFκB promoter and drives expression of the recombinant Secreted Alkaline Phosphatase (SEAP) gene. Media from the cells is then added to a development reagent (Quanti-Blue Substrate, Fisher #NC9711613), and read at A630.
Compounds were dispensed in DMSO to an empty clear 384-well tissue culture plate in a titration ranging from 10 μM to 27 pM, with DMSO added to every well to a final concentration of 0.1%. Cells were then added to the plate (45 μL/well at a concentration of 280,000 cells/mL). IL17A/A (Genscript #Z03228) or IL17A/F (R&D Systems) was added to the plate to a final concentration of 5 ng/mL and a final well volume of 50 μL. The cells, compound, and IL-17A/A or IL17A/F were then incubated for 20 hours before media was removed for SEAP analysis. The resulting inhibition curve was then analyzed using Dotmatics' integrated 4-parameter fit screening protocol to generate IC50 values.

Setting [1] is: HEK-Blue, 20 h, SEAP read at A630, read-out: AA IC50.
[2] abbreviates: 20 hours, SEAP read at A630, read-out: AA IC50.

With `CCn1nccc1C(=O)N[C@H](c1cn2nc(C[C@@H]3C[C@@H](C(F)(F)F)CNC3=O)c(N3CCC3)cc2n1)C1CCC(F)(F)CC1` [Compound 24], under setting [1], the half-maximal inhibitory concentration (IC50) is more than 1 µM.
With `CCn1nccc1C(=O)N[C@H](c1cn2nc(C[C@H]3C[C@@H](C(F)(F)F)CNC3=O)c(C3CC3)cc2n1)C1CCC(F)(F)CC1` [Compound 36], the IC50 under setting [1] was less than 0.1 µM.
For the compound `O=C(N[C@H](c1cn2nc(C[C@H]3C[C@@H](C(F)(F)F)CNC3=O)c(C3CCOC3)cc2n1)[C@H]1CCCC(F)(F)C1)c1nonc1C1CC1` (stereo partly drawn) [Compound 69], the IC50 under setting [1] was less than 0.1 µM.
Turning to `CCn1nccc1C(=O)N[C@H](c1cn2nc(C[C@H]3C[C@@H](C(F)(F)F)CNC3=O)c(C3COCCO3)cc2n1)C1CCC(F)(F)CC1` (stereo partly drawn) [Compound 95], under setting [2], the IC50 was less than 0.1 µM.
For the compound `CCn1nccc1C(=O)N[C@H](c1cn2nc(C[C@H]3C[C@@H](C(F)(F)F)CNC3=O)c(CN(C)CC(F)(F)F)cc2n1)C1CCC(F)(F)CC1` [Compound 116, N—((S)-(4,4-difluorocyclohexyl)(7-((methyl(2,2,2-trifluoroethyl)amino)methyl)-6-(((3R,5R)-2-oxo-5-(trifluoromethyl)piperidin-3-yl)methyl)imidazo[1,2-b]pyridazin-2-yl)methyl)-1-ethyl-1H-pyrazole-5-carboxamide], the IC50 under setting [1] is less than 0.1 µM.
Same read-out and setting: then `CCn1nccc1C(=O)N[C@H](c1cn2nc(C[C@H]3C[C@@H](C(F)(F)F)CNC3=O)c([C@@H](C)N(C)CC(F)(F)F)cc2n1)C1CCC(F)(F)CC1` [Compound 110, N-((1S)-(4,4-difluorocyclohexyl)(7-(1-(methyl(2,2,2-trifluoroethyl)amino)ethyl)-6-(((3R,5R)-2-oxo-5-(trifluoromethyl)piperidin-3-yl)methyl)imidazo[1,2-b]pyridazin-2-yl)methyl)-1-ethyl-1H-pyrazole-5-carboxamide], with less than 0.1 µM.
Turning to `CCn1nccc1C(=O)N[C@H](c1cn2nc(C[C@H]3C[C@@H](C(F)(F)F)CNC3=O)c(C3CCCOC3)cc2n1)[C@H]1CCCC(F)(F)C1` (stereo partly drawn) [Compound 65], the IC50 under setting [2] was less than 0.1 µM.
`CC(C)n1nccc1C(=O)N[C@H](c1cn2nc(C[C@H]3C[C@@H](C(F)(F)F)CNC3=O)c(C3CCOCC3)cc2n1)C1CCC(F)(F)CC1` [Compound 75]: under setting [1], the IC50 is less than 0.1 µM.
Same read-out and setting: as for `CCn1nccc1C(=O)N[C@H](c1cn2nc(C[C@H]3C[C@@H](C(F)(F)F)CNC3=O)c(N3CCOCC3)cc2n1)C1CCC(F)(F)CC1` [Compound 37], the figure is less than 0.1 µM.
Still for that read-out and setting: then `O=C(N[C@H](c1cn2nc(C[C@H]3C[C@@H](C(F)(F)F)CNC3=O)c(C3CCOCC3)cc2n1)[C@@H]1CCCC(F)(F)C1)c1nonc1C1CC1` [Compound 59], with less than 0.1 µM; and `O=C(N[C@H](c1cn2nc(C[C@H]3C[C@@H](C(F)(F)F)CNC3=O)c(N3CCOCC3)cc2n1)C1CCC(F)(F)CC1)c1nonc1C1CC1` [Compound 16], with less than 0.1 µM; and `CCn1nccc1C(=O)N[C@H](c1cn2nc(C[C@H]3C[C@@H](C(F)(F)F)CNC3=O)c(N3CCC3)cc2n1)C1CCC(F)(F)CC1` [Compound 23], with less than 0.1 µM.
The same measure, in the same setting: then `CCn1nccc1C(=O)N[C@H](c1cn2nc(C[C@H]3C[C@@H](C(F)(F)F)CNC3=O)c(C3COCCO3)cc2n1)C1CCC(F)(F)CC1` (stereo partly drawn) [Compound 94], with 0.1 to 1 µM.
Consider `CCn1nccc1C(=O)N[C@H](c1cn2nc(C[C@H]3C[C@@H](C(F)(F)F)CNC3=O)c(C3CCCOC3)cc2n1)C1CCC(F)(F)CC1` (stereo partly drawn) [Compound 7], for which, under setting [1], the IC50 lay within 0.1 to 1 µM.
Regarding `CCn1nccc1C(=O)N[C@H](c1cn2nc(C[C@H]3C[C@@H](C(F)(F)F)CNC3=O)c(C3CCCOC3)cc2n1)C1CCC(F)(F)CC1` (stereo partly drawn) [Compound 13], the half-maximal inhibitory concentration (IC50) under setting [2] is less than 0.1 µM.
In the case of `CCn1nccc1C(=O)N[C@H](c1cn2nc(C[C@H]3C[C@@H](C(F)(F)F)CNC3=O)c(C3CCCOC3)cc2n1)[C@@H]1CCCC(F)(F)C1` (stereo partly drawn) [Compound 64], the half-maximal inhibitory concentration (IC50) under setting [1] was less than 0.1 µM.
With `O=C(N[C@H](c1cn2nc(C[C@H]3C[C@@H](C(F)(F)F)CNC3=O)c(C3CCOCC3)cc2n1)C1CCC(F)(F)CC1)c1ccnn1C1CC1(F)F` (stereo partly drawn) [Compound 93], the IC50 under setting [2] was less than 0.1 µM.
On to `CCn1nccc1C(=O)N[C@H](c1cn2nc(C[C@H]3C[C@@H](C(F)(F)F)CNC3=O)c(N3CC(F)(F)C3)cc2n1)C1CCC(F)(F)CC1` [Compound 41], for which, under setting [1], the half-inhibitory concentration (IC50) lay within 0.1 to 1 µM.
On the same count and under the same terms, as for `CCn1nccc1C(=O)N[C@H](c1cn2nc(C[C@H]3C[C@@H](C(F)(F)F)CNC3=O)c(C3CCOCC3)cc2n1)C1CCC(F)(F)CC1` [Compound 21, N—((S)-(4,4-difluorocyclohexyl)(6-(((3R,5R)-2-oxo-5-(trifluoromethyl)piperidin-3-yl)methyl)-7-(tetrahydro-2H-pyran-4-yl)imidazo[1,2-b]pyridazin-2-yl)methyl)-1-ethyl-1H-pyrazole-5-carboxamide], the figure is less than 0.1 µM; as for `O=C(N[C@H](c1cn2nc(C[C@H]3C[C@@H](C(F)(F)F)CNC3=O)c(N3CCOCC3)cc2n1)[C@@H]1CCCC(F)(F)C1)c1nonc1C1CC1` [Compound 30], less than 0.1 µM; as for `CCn1nccc1C(=O)N[C@H](c1cn2nc(C[C@H]3C[C@@H](C(F)(F)F)CNC3=O)c(C3CCOCC3)cc2n1)[C@@H]1CCCC(F)(F)C1` [Compound 56], less than 0.1 µM.
Same read-out and setting: then `CCn1nccc1C(=O)N[C@H](c1cn2nc(C[C@H]3C[C@@H](C(F)(F)F)CNC3=O)c(C3CCN(C)C3)cc2n1)C1CCC(F)(F)CC1` (stereo partly drawn) [Compound 61], with 0.1 to 1 µM.
Same read-out and setting: as for `CCn1nccc1C(=O)N[C@H](c1cn2nc(C[C@H]3C[C@@H](C(F)(F)F)CNC3=O)c(N3CCC4(COC4)C3)cc2n1)C1CCC(F)(F)CC1` [Compound 49], the figure is less than 0.1 µM; as for `O=C(N[C@H](c1cn2nc(C[C@H]3C[C@@H](C(F)(F)F)CNC3=O)c(N3CC(F)(F)C3)cc2n1)C1CCC(F)(F)CC1)c1nonc1C1CC1` [Compound 40], 0.1 to 1 µM; as for `CCn1nccc1C(=O)N[C@H](c1cn2nc(C[C@H]3C[C@@H](C(F)(F)F)CNC3=O)c(N3CCO[C@H](C)C3)cc2n1)C1CCC(F)(F)CC1` [Compound 33, N—((S)-(4,4-difluorocyclohexyl)(7-((R)-2-methylmorpholino)-6-(((3R,5R)-2-oxo-5-(trifluoromethyl)piperidin-3-yl)methyl)imidazo[1,2-b]pyridazin-2-yl)methyl)-1-ethyl-1H-pyrazole-5-carboxamide], less than 0.1 µM.
On to `O=C(N[C@H](c1cn2nc(C[C@H]3C[C@@H](C(F)(F)F)CNC3=O)c(C3CCOC3)cc2n1)[C@@H]1CCCC(F)(F)C1)c1nonc1C1CC1` (stereo partly drawn) [Compound 74], for which, under setting [2], the half-maximal inhibitory concentration (IC50) is less than 0.1 µM.
For the compound `CCn1nccc1C(=O)N[C@H](c1cn2nc(C[C@H]3C[C@@H](C(F)(F)F)CNC3=O)c(C3CCCO3)cc2n1)C1CCC(F)(F)CC1` (stereo partly drawn) [Compound 83], under setting [1], the IC50 was less than 0.1 µM.
Same read-out and setting: as for `O=C(N[C@H](c1cn2nc(C[C@H]3C[C@@H](C(F)(F)F)CNC3=O)c(C3CCOCC3)cc2n1)C1CCC(F)(F)CC1)c1nonc1C1CC1` [Compound 54], the figure is less than 0.1 µM.
Turning to `CCn1nccc1C(=O)N[C@H](c1cn2nc(C[C@H]3C[C@@H](C(F)(F)F)CNC3=O)c(C3CCOC3)cc2n1)[C@@H]1CCCC(F)(F)C1` (stereo partly drawn) [Compound 68], the 50% inhibitory concentration (IC50) under setting [1] was less than 0.1 µM.
For `O=C(N[C@H](c1cn2nc(C[C@H]3C[C@@H](C(F)(F)F)CNC3=O)c(C3CCOC3)cc2n1)[C@@H]1CCCC(F)(F)C1)c1nonc1C1CC1` (stereo partly drawn) [Compound 70], the 50% inhibitory concentration (IC50) under setting [1] is less than 0.1 µM.
The same measure, in the same setting: then `CCn1nccc1C(=O)N[C@H](c1cn2nc(C[C@H]3C[C@@H](C(F)(F)F)CNC3=O)c(CN3CCOCC3)cc2n1)C1CCC(F)(F)CC1` [Compound 108, N—((S)-(4,4-difluorocyclohexyl)(7-(morpholinomethyl)-6-(((3R,5R)-2-oxo-5-(trifluoromethyl)piperidin-3-yl)methyl)imidazo[1,2-b]pyridazin-2-yl)methyl)-1-ethyl-1H-pyrazole-5-carboxamide], with less than 0.1 µM; and `CCn1nccc1C(=O)N[C@H](c1cn2nc(C[C@@H]3C[C@@H](C(F)(F)F)CNC3=O)c(-c3cccnc3)cc2n1)C1CCC(F)(F)CC1` [Compound 8], with 0.1 to 1 µM; and `O=C(N[C@H](c1cn2nc(C[C@H]3C[C@@H](C(F)(F)F)CNC3=O)c(N3CCOCC3)cc2n1)[C@H]1CCCC(F)(F)C1)c1nonc1C1CC1` [Compound 29], with less than 0.1 µM.
On the same count and under the same terms, then `CCn1nccc1C(=O)N[C@H](c1cn2nc(C[C@H]3C[C@@H](C(F)(F)F)CNC3=O)c(CN(CC(F)(F)F)C3CC3)cc2n1)C1CCC(F)(F)CC1` [Compound 117, N—((S)-(7-((cyclopropyl(2,2,2-trifluoroethyl)amino)methyl)-6-(((3R,5R)-2-oxo-5-(trifluoromethyl)piperidin-3-yl)methyl)imidazo[1,2-b]pyridazin-2-yl)(4,4-difluorocyclohexyl)methyl)-1-ethyl-/H-pyrazole-5-carboxamide], with less than 0.1 µM; and `CCn1nccc1C(=O)N[C@H](c1cn2nc(C[C@H]3C[C@@H](C(F)(F)F)CNC3=O)c(N3CCCC3)cc2n1)C1CCC(F)(F)CC1` [Compound 22], with less than 0.1 µM.
On the same count and under the same terms, then `CCn1nccc1C(=O)N[C@H](c1cn2nc(C[C@H]3C[C@@H](C(F)(F)F)CNC3=O)c(C3CCN(C)CC3)cc2n1)C1CCC(F)(F)CC1` [Compound 60], with 0.1 to 1 µM.

Broadly, the IC50 is the concentration that inhibits the measured activity by half.
